Where “and” joins values, the source holds several entries; their conditions need not be identical. Identical values can stand only once.
What was measured:
[1] = tested on: T. cruzi (naturally acquired infection); test: NHP treatment study: blood qPCR for T. cruzi DNA; type: in vivo, rhesus macaques (Macaca mulatta)
Source text: A total of 22 rhesus macaques that had been confirmed to be serologically- and PCR-positive for T. cruzi were utilized in these studies. Using 19 animals in the treatment group provided 85% power of detecting 100% efficacy. […] The remaining three animals on the study were maintained as untreated control animals and received food treats but were not dosed with AN15368.
Blood samples from each macaque were collected at various time points and processed for quantification of T. cruzi DNA by real-time qPCR. Between 8-10ml of whole blood collected in EDTA anticoagulant tubes was subjected to DNA extraction using the Omega E.Z.N.A. Blood DNA Maxi Kit (Omega Bio-Tek), following the manufacturer’s instructions for up to 10 ml whole blood and using a total of 650 μl of elution buffer. Each round of extractions included a negative (no-template) control comprised of 10 ml PBS. The concentration of DNA in the eluted solution was quantified after each extraction using an Epoch microplate spectrophotometer (BioTek).
DNA from each sample was then subjected to a series of two qPCR assays for detection of T. cruzi satellite DNA. The first qPCR used the cruzi 1, 2 primer set and cruzi 3 TaqMan probe as previously described, [54], using BioRad iTaq Universal Probes Supermix (Bio-Rad). […] We selected FAM and VIC channels for each read.

[2] = NHP health screening: hematology (CBC); type: in vivo, rhesus macaques (Macaca mulatta)
Procedure: Under light-anesthesia/sedation, peripheral blood samples were collected from each animal prior to treatment and at 7 time points following. Blood analysis (CBC and serum chemistry assays) and physical exams to evaluate the health of the study animals were performed on each animal prior to the beginning of the study and also at three time points during the treatment protocol (see Supplementary data).

[3] = Mean of treated female rhesus macaques, blood sample of 2018-03-26/27
[4] = Treated rhesus macaques, individual animal, blood sample of 2018-03-26/27
[5] = drug-treatment phase, returned to pre-study values by the final blood draw
[6] = treated female macaques, mid-dosing bleed, Mean
[7] = treated female macaques, post-dosing bleed, Mean

Cc1c(C(=O)N[C@H](C(=O)OCC2CCOCC2)C(C)C)ccc2c1B(O)OC2 [AN15368]
parasite DNA in blood (in words) ([1]; 30 mg/kg/day oral 60 days, all time points after end of treatment): negative
efficacy / cure ([1]; naturally infected NHPs, 30 mg/kg/day 60 days): 100%
Baso, Mean [2, 3]: 0.01 10^3/µL
Eos, Mean [2, 3]: 0.09056 10^3/µL
Hct, Mean [2, 3]: 42.7278%
Hgb, Mean [2, 3]: 13.2278 G/Dl
Lymp, Mean [2, 3]: 2.112 10^3/µL
Mch, Mean [2, 3]: 22.4444 Pgs
Mchc, Mean [2, 3]: 30.9611 G/Dl
Mcv, Mean [2, 3]: 72.4667 fL
Mono, Mean [2, 3]: 0.2806 10^3/µL
Mpv, Mean [2, 3]: 7.333 fL
Neut, Mean [2, 3]: 3.369 10^3/µL
Plt, Mean [2, 3]: 334.722 10^3/µL
Rbc, Mean [2, 3]: 5.902 10^6/µL
Rdw, Mean [2, 3]: 12.2111%
Wbc, Mean [2, 3]: 5.862 10^3/µL
Baso [2, 4]: 0.01 10^3/µL and 0 10^3/µL
Eos [2, 4]: 0.24 10^3/µL and 0.09 10^3/µL and 0.02 10^3/µL and 0.17 10^3/µL and 0.16 10^3/µL
Hct [2, 4]: 46.5% and 43.6% and 38.8% and 40.8% and 41.6%
Hgb [2, 4]: 14.6 G/Dl and 13 G/Dl and 11.7 G/Dl and 13.1 G/Dl
Lymp [2, 4]: 2.42 10^3/µL and 2.63 10^3/µL and 1.31 10^3/µL and 3.46 10^3/µL and 2.68 10^3/µL
Mch [2, 4]: 21.8 Pgs and 21.4 Pgs and 21.5 Pgs and 22.2 Pgs and 22.8 Pgs
Mchc [2, 4]: 31.4 G/Dl and 29.8 G/Dl and 30.2 G/Dl and 32.1 G/Dl and 31.5 G/Dl
Mcv [2, 4]: 69.6 fL and 71.6 fL and 71.5 fL and 69.4 fL and 72.5 fL
Mono [2, 4]: 0.38 10^3/µL and 0.28 10^3/µL and 0.1 10^3/µL and 0.31 10^3/µL
Mpv [2, 4]: 7.6 fL and 6.9 fL and 7.2 fL and 6.4 fL
Neut [2, 4]: 3.03 10^3/µL and 1.68 10^3/µL and 2.26 10^3/µL and 1.88 10^3/µL and 0.86 10^3/µL
Plt [2, 4]: 347 10^3/µL and 388 10^3/µL and 304 10^3/µL and 339 10^3/µL and 367 10^3/µL
Rbc [2, 4]: 6.68 10^6/µL and 6.09 10^6/µL and 5.43 10^6/µL and 5.88 10^6/µL and 5.74 10^6/µL
Rdw [2, 4]: 11.4% and 12.7% and 10.8% and 12.3% and 12.2%
Wbc [2, 4]: 6.07 10^3/µL and 4.69 10^3/µL and 3.69 10^3/µL and 5.83 10^3/µL and 3.99 10^3/µL
lymphocytes in the blood [2, 5]: mildly elevated
monocytes in the blood [2, 5]: mildly elevated
Baso [2, 6]: 0.01333 10^3/µL
Eos [2, 6]: 0.09889 10^3/µL
Hct [2, 6]: 41.4111%
Hgb [2, 6]: 13.2333 G/Dl
Lymp [2, 6]: 3.343 10^3/µL
Mch [2, 6]: 23.5333 Pgs
Mchc [2, 6]: 31.9611 G/Dl
Mcv [2, 6]: 73.75 fL
Mono [2, 6]: 0.2572 10^3/µL
Mpv [2, 6]: 7.506 fL
Neut [2, 6]: 2.007 10^3/µL
Plt [2, 6]: 319.5 10^3/µL
Rbc [2, 6]: 5.621 10^6/µL
Rdw [2, 6]: 12.4556%
Wbc [2, 6]: 5.718 10^3/µL
Baso [2, 7]: 0.01167 10^3/µL
Eos [2, 7]: 0.09 10^3/µL
Hct [2, 7]: 40.5389%
Hgb [2, 7]: 13.0722 G/Dl
Lymp [2, 7]: 2.497 10^3/µL

Reference: publication PMC9519446, “Discovery of an Orally Active Benzoxaborole Prodrug Effective in the Treatment of Chagas Disease in Non-human Primates” (Nature microbiology, 2022)
